Source: patent US12157746B2, “Tetrahydro-1H-pyrazino[2,1-a]isoindolylquinoline compounds for the treatment of autoimmune disease” (F. HOFFMANN-LA ROCHE AG, priority 2018, dated 2024)
pIC50: −log10 of the molar value.

Each compound was assayed against T1, human TLR7 (Homo sapiens, UniProt Q9NYK1) (assay: HEK293-Blue-hTLR-7 cells assay). Conditions: HEK293-Blue-hTLR7 cells, R848 stimulation, 20 hrs, SEAP reporter; read-out: HEK/hTLR7 IC50.
T1 sequence (Q9NYK1 27-1049): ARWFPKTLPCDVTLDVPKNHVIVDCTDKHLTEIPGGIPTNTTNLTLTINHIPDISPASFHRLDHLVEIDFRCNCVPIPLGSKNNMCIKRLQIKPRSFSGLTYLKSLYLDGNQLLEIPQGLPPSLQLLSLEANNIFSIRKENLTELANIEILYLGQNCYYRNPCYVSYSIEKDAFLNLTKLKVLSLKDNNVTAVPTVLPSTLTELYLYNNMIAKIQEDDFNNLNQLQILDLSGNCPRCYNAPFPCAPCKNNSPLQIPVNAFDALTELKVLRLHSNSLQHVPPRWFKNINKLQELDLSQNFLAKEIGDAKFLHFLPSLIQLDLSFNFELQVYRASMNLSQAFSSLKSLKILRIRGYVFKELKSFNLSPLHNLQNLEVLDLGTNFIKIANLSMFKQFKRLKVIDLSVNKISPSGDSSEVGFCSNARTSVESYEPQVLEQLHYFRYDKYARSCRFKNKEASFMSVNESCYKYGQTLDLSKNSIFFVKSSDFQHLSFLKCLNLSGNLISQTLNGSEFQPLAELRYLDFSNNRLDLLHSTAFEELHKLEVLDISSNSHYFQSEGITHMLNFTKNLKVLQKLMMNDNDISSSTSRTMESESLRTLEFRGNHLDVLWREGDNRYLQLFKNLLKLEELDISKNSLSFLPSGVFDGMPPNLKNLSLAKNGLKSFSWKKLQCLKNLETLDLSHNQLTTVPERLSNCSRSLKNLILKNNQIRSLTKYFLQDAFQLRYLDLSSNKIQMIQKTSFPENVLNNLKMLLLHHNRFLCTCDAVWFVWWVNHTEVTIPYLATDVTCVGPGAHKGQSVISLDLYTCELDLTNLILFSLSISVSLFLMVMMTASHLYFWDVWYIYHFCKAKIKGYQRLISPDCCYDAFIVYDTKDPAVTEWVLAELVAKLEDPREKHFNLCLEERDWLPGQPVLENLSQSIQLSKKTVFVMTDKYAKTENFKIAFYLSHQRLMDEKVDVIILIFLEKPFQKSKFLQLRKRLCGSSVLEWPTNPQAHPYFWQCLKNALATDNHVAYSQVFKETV
Assay type: cell-based
In short: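 HEK293-Blue-hTLR7 cells (NF-κB/AP-1-driven SEAP reporter) incubated with serially diluted compound (1% DMSO final) and R848 agonist for 20 h at 37 °C. Supernatant SEAP measured with QUANTI-Blue (2 h, 37 °C) by absorbance at 620-655 nm; antagonism seen as reduced reporter.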

Compound | pIC50
CO[C@H]1CNCC[C@H]1Nc1ccc2c(c1)CN1[C@H](C)CN(c3ccc(C#N)c4ncccc34)C[C@H]21 [Example 66, 5-[(4R,10bS)-8-[[(3S,4R)-3-methoxy-4-piperidyl]amino]-4-methyl-3,4,6,10b-tetrahydro-1H-pyrazino[2,1-a]isoindol-2-yl]quinoline-8-carbonitrile] | > 8.49
CO[C@@H]1CNC[C@@H]1Nc1ccc2c(c1)CN1[C@H](C)CN(c3ccc(C#N)c4ncccc34)C[C@H]21 [Example 60, 5-[(4R,10bS)-8-[[(3S,4R)-4-methoxypyrrolidin-3-yl]amino]-4-methyl-3,4,6,10b-tetrahydro-1H-pyrazino[2,1-a]isoindol-2-yl]quinoline-8-carbonitrile] | 8.49
C[C@@H]1CN(c2ccc(Cl)c3ncccc23)C[C@@H]2c3ccc(N[C@H]4CNC[C@H]4F)cc3CN12 [Example 79, (4R,10b)-2-(8-chloro-5-quinolyl)-N-[(3S,4R)-4-fluoropyrrolidin-3-yl]-4-methyl-3,4,6,10b-tetrahydro-1H-pyrazino[2,1-a]isoindol-8-amine] | 8.12
C[C@@H]1CN(c2ccc(C#N)c3ncccc23)C[C@@H]2c3ccc(N[C@H]4CNCCOC4)cc3CN12 [Example 56B, 5-[(4R,10bS)-4-methyl-8-[[(6S)-1,4-oxazepan-6-yl]amino]-3,4,6,10b-tetrahydro-1H-pyrazino[2,1-a]isoindol-2-yl]quinoline-8-carbonitrile] | 8.35
C[C@@H]1CN(c2ccc(C#N)c3ncccc23)C[C@@H]2c3ccc(NC[C@@H]4CNCCO4)cc3CN12 [Example 58, 5-[(4R,10bS)-4-methyl-8-[[(2S)-morpholin-2-yl]methylamino]-3,4,6,10b-tetrahydro-1H-pyrazino[2,1-a]isoindol-2-yl]quinoline-8-carbonitrile] | > 8.49
C[C@@H]1CN(c2ccc(C#N)c3ncsc23)C[C@@H]2c3ccc(N[C@H]4CNC[C@H]4F)cc3CN12 [Example 78, 7-[(4R,10bS)-8-[[(3S,4R)-4-fluoropyrrolidin-3-yl]amino]-4-methyl-3,4,6,10b-tetrahydro-1H-pyrazino[2,1-a]isoindol-2-yl]-1,3-benzothiazole-4-carbonitrile] | 8.92
C[C@@H]1CN(c2ccc(C#N)c3ncccc23)C[C@@H]2c3cc(F)c(N4CC5CNCC(C4)O5)cc3CN12 [Example 85, 5-[(4R,10bS)-9-fluoro-4-methyl-8-(9-oxa-3,7-diazabicyclo[3.3.1]nonan-3-yl)-3,4,6,10b-tetrahydro-1H-pyrazino[2,1-a]isoindol-2-yl]quinoline-8-carbonitrile] | 8.16
[2H]c1ccc2c(N3C[C@@H](C)N4Cc5cc(N6CC7(CNCCO7)C6)ccc5[C@H]4C3)ccc(C#N)c2n1 [Example 90, 5-[(4R,10bS)-4-methyl-8-(5-oxa-2,8-diazaspiro[3.5]nonan-2-yl)-3,4,6,10b-tetrahydro-1H-pyrazino[2,1-a]isoindol-2-yl]-2-deuterio-quinoline-8-carbonitrile] | 8.54
C[C@@H]1CN(c2ccc(C(F)(F)F)c3nccnc23)C[C@@H]2c3ccc(N[C@H]4CNC[C@H]4F)cc3CN12 [Example 77, (4R,10bS)—N-[(3S,4R)-4-fluoropyrrolidin-3-yl]-4-methyl-2-[8-(trifluoromethyl)quinoxalin-5-yl]-3,4,6,10b-tetrahydro-1H-pyrazino[2,1-a]isoindol-8-amine] | 7.90
C[C@@H]1CN(c2ccc(C#N)c3ncccc23)C[C@@H]2c3ccc(NC[C@H]4CNCCO4)cc3CN12 [Example 59, 5-[(4R,10bS)-4-methyl-8-[[(2R)-morpholin-2-yl]methylamino]-3,4,6,10b-tetrahydro-1H-pyrazino[2,1-a]isoindol-2-yl]quinoline-8-carbonitrile] | > 8.49
